Work on `CCOC(=O)c1ccc(C(F)(F)F)c(Br)n1` yielded a melting point of 40 to 40.5 °C.
Molecule `CC(=O)c1c(-c2ccccc2)nn(CC2CC2)c(=O)c1Nc1cccc2cccnc12` has a melting point of 123 to 125 °C.
In the case of `O=C(O)CCC(=O)N1CCN(c2ccccn2)CC1`, the melting point is reported as 125 to 127 °C.
Work on `CC1Oc2c(Cc3ccccc3)cc(CN3CCN(c4ccc(C(=O)NC5CC5)cc4)CC3)cc2NC1=O` (stereo not drawn) yielded a melting point of 192 to 203 °C.
In the case of `CC(C#Cc1ccc(C=Cc2ccccc2)o1)N(O)C(N)=O` (stereo not drawn), the melting point is reported as 168 °C.
In the case of `Cc1c(C)c2c(c(C)c1OCc1ccccc1)CCC(C)(CC=O)O2` (stereo not drawn), the melting point is reported as 70 to 75 °C.
With `CCCC(O)c1c(C)c(NC(=O)CC(C)(C)C)c(C)c2c1OCC2c1ccc(C(C)C)cc1` (stereo not drawn) the melting point was 150 to 151 °C.
Work on `COc1ccccc1Cc1ccc2[nH]c3cnn(C)c3c(=O)c2c1` yielded a melting point of 255 °C.
Molecule `CCOC(=O)Cc1sc(Sc2cc(C(=O)OC)c3ccccc3n2)nc1C` has a melting point of 128 to 131 °C.
For `O=Cc1ccc2[nH]c(C(=O)OCc3ccccc3)cc2c1`, the melting point was 172 °C.
`CCOC(=O)C1=Cc2cc(Cl)cc(C#CCCCCl)c2OC1C(F)(F)F` (stereo not drawn) showed a melting point of 84.8 to 85.9 °C.
Work on `C=CCN(CC=C)CC(=O)N1c2ccccc2N(C)C(=O)c2cnc(-c3ccccc3)nc21` yielded a melting point of 139 to 140 °C.
In the case of `OC1CCCC1Oc1ccc(Oc2ccccc2)cc1` (stereo not drawn), the melting point is reported as 62 to 65 °C.
For `Nc1c(-c2cccnc2)nsc1C(=O)O`, the melting point was 235 to 236 °C.
For `O=S(=O)(NCCCCCCCCn1ccnc1)c1ccc(Cl)cc1`, the melting point was 54 to 56 °C.
For `CS(=O)(=O)N(c1cc(-c2ncc(C(F)(F)F)cc2Cl)ccc1Cl)S(C)(=O)=O`, the melting point was 230 to 231 °C.
Molecule `COc1ccc(-c2ccc(N)cc2)cc1OC1CCCC1` has a melting point of 94 to 95 °C.
Work on `ON=C(c1ccccc1)c1nsc2nc3ccccc3n12` yielded a melting point of 247 °C.
`COc1ccc(-c2c(Cl)c(CCl)nc3sc4c(c23)CCN(C(=O)c2ccccc2)C4)cc1OC` gave a melting point of 208 to 209 °C.
`CCOCc1nc2cnc3cc(Br)ccc3c2n1CC1CCN(C(=O)OC(C)(C)C)CC1` gave a melting point of 169 to 170 °C.
`COc1cc(Nc2c(C#N)cnc3cc(C#Cc4cccnc4)sc23)c(Cl)cc1Cl` showed a melting point of 249 to 250 °C.
Work on `NC(=O)c1cccc(Cn2ccc(OCc3ccc(F)cc3F)c(Br)c2=O)c1` yielded a melting point of 198 to 201 °C.
For `COc1nncc(-c2ccccc2)n1`, the melting point was 73 to 74 °C.
Molecule `O=C1N(Cc2ccc(F)cn2)c2ccccc2C12COc1cc3c(cc12)OCCO3` (stereo not drawn) has a melting point of 174 to 176 °C.
`CN1Cc2c(-c3noc(CCl)n3)ncn2-c2ccccc2C1=O` gave a melting point of 208 to 209 °C.
`Cc1c(NC(=O)c2ccc(OC[C@@H]3CCCO3)cc2)ccc2c1cc(CNCC1CCOCC1)n2C` showed a melting point of 166 to 167 °C.
For `CNc1ccc(C)nc1N`, the melting point was 112 to 113 °C.
Molecule `CCc1c(C)[nH]c(=O)c(N)c1Cc1cc(C)cc(C)c1` has a melting point of 204 to 205 °C.
For `COc1cc2ncnc(N3CCN(C(=S)Nc4ccc(S(=O)(=O)N5CCCCC5)cc4)CC3)c2cc1OC`, the melting point was 149 to 150 °C.
`CC(=O)Nc1ccc(S(=O)(=O)NCC2CCN(C[C@H]3COc4ccc(Cl)cc4O3)CC2)cc1` gave a melting point of 173 to 176 °C.
For `C=CCc1cc2c(c(CC=C)c1O)N(CC=Cc1ccccc1)C(=O)CC2`, the melting point was 132 to 138 °C.
Work on `CCNC(=O)CC1CCN(Cc2cnc3cc(NC(=O)c4ccc(-c5ccc(Cl)cc5)cc4)ccc3c2)CC1` yielded a melting point of 250 °C.
With `COc1ccc2[nH]c3c(c2c1)C[C@@]1(C)C(=O)N(CCN2CCN(C)CC2)C(=O)N1[C@@H]3c1cccc(O)c1` (racemic) the melting point was 224 to 227 °C.
Molecule `O=C1N[C@H](c2ccccc2)CSC[C@@H]1N1C(=O)c2ccccc2C1=O` has a melting point of 280 to 282 °C.
Molecule `Cc1ccc(C=CC(=O)N[C@@H](Cc2ccc(OCCc3nc(-c4ccccc4)oc3C)c(Br)c2)C(=O)O)cc1` has a melting point of 243 to 245 °C.
In the case of `COc1cc(CC(COC(C)=O)NC(=O)c2ccccc2)cc2c1OC(C)(C)C2` (stereo not drawn), the melting point is reported as 141 to 142 °C.
`C=C(C)CN1Cc2cc(Cl)cc3[nH]c(=O)n(c23)CC1C` (stereo not drawn) showed a melting point of 175 °C.
`CCCCc1ncc(CCNC(CCc2ccccc2)C(=O)O)n1Cc1ccccc1Cl` (stereo not drawn) showed a melting point of 123 °C.
For `Cc1c(C)c2c(c(C)c1N)C(c1ccc(C(C)C)cc1)C1(CCCC1)O2` (stereo not drawn), the melting point was 132 to 133 °C.
Molecule `CS(=O)(=O)c1ccc(C(Cc2ccccc2F)C(=O)Nc2nc3ccccc3o2)cc1` (stereo not drawn) has a melting point of 99 to 100 °C.
Work on `NS(=O)(=O)c1ccc(S(=O)(=O)N2CCc3cccc(-c4ccncc4)c32)cc1` yielded a melting point of 242 to 243 °C.
Molecule `CCCNc1c(NCCCOc2cccc(CN3CCCCC3)c2)c(=O)c1=O` has a melting point of 158 to 160 °C.
`CC(=O)Nc1nc2cc(CN3CCN(C(c4ccccc4)c4ccccc4)CC3)ccc2n1C` showed a melting point of 202 °C.
Work on `Cc1ccc(C2c3c(C)c(N4Cc5ccccc5C4)c(C)c(C)c3OC2(C)C)cc1` (stereo not drawn) yielded a melting point of 141 to 143 °C.
For `OCCOc1cnccc1CCCOc1cccnc1Oc1ccccc1`, the melting point was 129 to 132 °C.
`CN1C(=O)N(Cc2cc(C(F)(F)F)cc(C(F)(F)F)c2)C(=O)C1=Cc1c[nH]c2ccccc12` gave a melting point of 145 to 147 °C.
For `CC(C)(N)C(O)c1cc(C(F)(F)F)nc2c(C(F)(F)F)cccc12` (stereo not drawn), the melting point was 175 to 176 °C.
With `CC(C)(C)c1cc(NC(=S)NCc2ccc(N)cc2)cc(C(C)(C)C)c1O` the melting point was 167 to 169 °C.
Work on `CCOC(=O)c1ccc(NCc2ccccc2)nc1C(=O)OCC` yielded a melting point of 110 to 114 °C.
Molecule `CCCCCCCCCCCCSc1nnn(C(C(=O)Nc2c(OC)cc(OC)cc2OC)c2ccccc2)n1` (stereo not drawn) has a melting point of 141 to 143 °C.
`Cc1cncn1-c1cccc([N+](=O)[O-])c1` showed a melting point of 130 to 132 °C.
For `Cc1c(O)c(=O)[nH]c2cc(Cl)ccc2c1=O`, the melting point was 277 to 279 °C.
For `CC1(C)SC(=O)N(Cc2ccccc2[N+](=O)[O-])C1=O`, the melting point was 72.3 to 73.2 °C.
Molecule `Cc1ccc(CCNC(=O)c2ccc3n2Cc2ccccc2N(C(=O)c2ccc(-c4ccccc4C)c(C)c2)C3)cc1` has a melting point of 161 to 163 °C.
With `O=C(O)CCCC/C=C/c1ccccc1CO` the melting point was 92 to 94.5 °C.
`Cc1nnc2n1-c1ccc(Br)cc1C(c1ccccc1F)=NC2` gave a melting point of 213 to 214 °C.
`CC(=O)NCC1CN(c2ccc(N3CCN(C4=NCCS4)CC3)c(F)c2)C(=O)O1` (stereo not drawn) gave a melting point of 219 to 223 °C.
In the case of `Clc1ccccc1-c1ccc2nncn2c1`, the melting point is reported as 177 to 180 °C.
Molecule `C=CC(=O)N1CCSC1c1cc(C(C)(C)C)c(O)c(C(C)(C)C)c1` (stereo not drawn) has a melting point of 147 to 149 °C.
In the case of `COc1ccc(F)c(C)c1NC(=O)OC(C)(C)C`, the melting point is reported as 81 to 82 °C.
Molecule `COC(=O)NCCOC(=O)COc1cc(Oc2ccc(C(F)(F)F)cc2Cl)ccc1[N+](=O)[O-]` has a melting point of 105 to 108 °C.
In the case of `CCC(=O)NC(C)(C)CSc1cc(C)c(Cl)cc1C`, the melting point is reported as 78 to 81 °C.
Molecule `CCC(C)NC1=NS(=O)(=O)c2cc(C(=O)O)ccc2N1` (stereo not drawn) has a melting point greater than 310 °C.
Molecule `CC(N)=CC(=O)CS(=O)(=O)N(C)Cc1ccccc1` has a melting point of 115 to 118 °C.
In the case of `CCN1c2ncc(C=Cc3cccc(F)c3)cc2C(=O)N(C)c2ccc(Cl)nc21`, the melting point is reported as 130 to 131 °C.
With `CC(=O)Nc1nc(N)nnc1-c1cccc(Cl)c1Cl` the melting point was 250 to 252 °C.
`CN(C)C=Nc1ncc(-c2ccc(C(F)(F)F)cc2)cc1C(F)(F)F` showed a melting point of 114 °C.
`COc1ccc(C2=NN(c3ccc(C(=O)O)cc3)C(=O)[C@H]3CC=CC[C@@H]23)cc1OC` (relative stereo) gave a melting point of 198 to 199 °C.
With `COC(=O)CCNC(=O)c1cc(NC(=O)c2ccc(C(=N)NC(=O)OC(C)(C)C)cc2)ccc1O` the melting point was 177 to 179 °C.
`CC(C)(N)Cc1c[nH]c2ccccc12` gave a melting point of 72 to 74 °C.
With `CC(C(=O)c1ccc(OCc2ccccc2)c(OCc2ccccc2)c1)N1CCC(n2c(=O)[nH]c3ccccc32)CC1` (stereo not drawn) the melting point was 87 to 90 °C.
Molecule `O=C1NC(=O)C(C2CC=CCC2)O1` (stereo not drawn) has a melting point of 83 to 86 °C.
With `COC(=O)[C@@H]1COC(=S)N1C(C)=O` the melting point was 68 to 68.4 °C.
`Fc1ccc(Nc2ncnc3cnc(NC4CCC(N5CCCC5)CC4)nc23)cc1Cl` (stereo not drawn) gave a melting point of 192 to 195 °C.
Molecule `CS(=O)(=O)C(=C1CN(C(c2ccccc2)c2ccccc2)C1)c1cccc(N)c1` has a melting point of 197 °C.
Molecule `CCCOc1ccccc1CN1N=C(CCC)C(=CNc2ccccc2CC)C1=O` has a melting point of 75.2 °C.
`O=C(NC(Cc1ccc(OCc2ccc(F)cc2)cc1)C(=O)O)c1cc2ccc(-c3ccc(Cl)cc3)cc2o1` (stereo not drawn) gave a melting point of 166 to 168 °C.
`COc1cccc(C(=O)c2[nH]c3cc(Cl)ccc3c2CC(=O)O)c1` showed a melting point of 227 to 231 °C.
In the case of `CCOC(=O)Cn1c(-c2ccc(Cl)cc2)nc2cccnc21`, the melting point is reported as 123 to 124 °C.
`COn1nnc2cc(Cn3ccnc3)ccc21` showed a melting point of 94.3 °C.
For `[N-]=[N+]=NC1CC(n2cc(Cl)c(=O)[nH]c2=O)OC1CO` (stereo not drawn), the melting point was 65 °C.
`CC(C)(C)c1nc2cc(Cl)c([N+](=O)[O-])cc2s1` gave a melting point of 65 to 69 °C.
With `Cc1cc(CC(O)CN2C(=O)CCC2=O)cc(C(C)(C)C)c1O` (stereo not drawn) the melting point was 218 °C.
In the case of `NC(=O)CCC(CCCCNS(=O)(=O)c1ccc(Cl)cc1)CCCc1cccnc1` (stereo not drawn), the melting point is reported as 100 to 102 °C.
`O=C(O)C1=Cc2cc(Cl)c(S(=O)c3ccc(Cl)cc3)cc2OC1C(F)(F)F` (stereo not drawn) showed a melting point of 214 to 217 °C.
`Cc1nc(-c2ccccc2)cc(-c2cccc([N+](=O)[O-])c2)c1CO` showed a melting point of 209 to 214 °C.
Molecule `O=S1c2ccccc2Oc2ccc(-c3nnn[nH]3)cc21` (stereo not drawn) has a melting point of 267 to 268 °C.
`CCOc1nn(-c2ccc(C(F)(F)F)cn2)cc1CCCOc1ccc(CCC(=O)O)cc1OC` showed a melting point of 131 to 132 °C.
In the case of `C=C(C(=O)c1ccc(OC)c(Cl)c1Cl)c1ccccc1`, the melting point is reported as 83.5 to 86 °C.
Work on `COc1ccc(-n2nc3c4c([nH]cc-3c2=O)CCCC4)cc1` yielded a melting point of 279 to 282 °C.
`CNc1cc(Cl)c(OC)c([N+](=O)[O-])c1OC` gave a melting point of 57 °C.
Molecule `CC(Cn1ncnn1)n1nnc2cc3c(=O)n(C4CCC4)nnc3cc2c1=O` (stereo not drawn) has a melting point of 152 to 154 °C.
In the case of `CCCCCc1cc2c(nc(O)n2CC2CCN(S(C)(=O)=O)CC2)c(N)n1`, the melting point is reported as 228 to 231 °C.
For `CC(O)c1ccc(Cc2c(Cl)cc(N3N=CCNC3=O)cc2Cl)cc1` (stereo not drawn), the melting point was 119 to 120 °C.
In the case of `O=C(C=Cc1cccc(-c2ccc(O)cc2)c1)NO`, the melting point is reported as 127 to 128 °C.
`COC(=O)CC1=CN=C(SC)NC1(C)O` (stereo not drawn) showed a melting point of 200 °C.
With `Cc1noc(NS(=O)(=O)c2ccc(-c3ccc(C(F)(F)F)cc3)s2)c1Br` the melting point was 132 °C.
In the case of `S=C1Nc2cc(Br)ccc2-n2ccc3cccc1c32`, the melting point is reported as 214 to 215 °C.
